In ChEMBL document CHEMBL1130636, “PDE4 inhibitors: new xanthine analogues” (Bioorg Med Chem Lett, 1998):
The source made the active and inactive calls. The calls are words filed in the database; no cut-off is given here.

Legend:
[1] = tested on: Cavia porcellus; assay: Inhibition of eosinophil recruitment in guinea pig lung asthma model at 10 mg/kg; assay type: functional
[2] = target: T1, Phosphodiesterase 4 (Homo sapiens, UniProt P27815+Q08499+Q07343+Q08493); assay: Inhibition of rolipram binding; assay type: protein assay
[3] = target: T1, Phosphodiesterase 4; assay: Inhibition of PDE4; assay type: protein assay
[4] = target: T1, Phosphodiesterase 4; assay: Relative inhibition of PDE4 activity and rolipram binding to PDE4; assay type: protein assay
[5] = tested on: Cavia porcellus; assay: Inhibition of eosinophil recruitment in guinea pig lung asthma model at 10 mg/kg oral dose; assay type: functional
[6] = tested on: Mustela putorius furo; assay: Emetic effect in ferrets on oral administration at 10 mg/kg (No effect); assay type: functional, organism-based; parameters: dose 10 mg/kg
[7] = tested on: Cavia porcellus; assay: Inhibition of eosinophil recruitment in guinea pig lung asthma model at 30 mg/kg oral dose; assay type: functional
[8] = target: T1, Phosphodiesterase 4; assay: Inhibition of rolipram binding to PDE4; assay type: protein assay

Structure (SMILES): COc1ccc(C2CNC(=O)C2)cc1OC1CCCC1 (centres undefined) [ROLIPRAM]
- inhibition in vivo at 10 mg/kg [1]: 48%

Structure (SMILES): COc1cccc(-n2c(=O)n(Cc3ccccc3)c(=O)c3[nH]cnc32)c1
- IC50 [2]: 0.017 µM
- IC50 [3]: 6.01 µM
- Ratio [4]: 353

Structure (SMILES): Cc1ccccc1-n1c(=O)n(Cc2ccco2)c(=O)c2[nH]cnc21
- IC50 [2]: 1.1 µM
- IC50 [3]: 11.95 µM
- Ratio [4]: 10.9

Structure (SMILES): CSc1ccccc1-n1c(=O)n(Cc2ccccc2)c(=O)c2[nH]cnc21
- IC50 [3]: 20 µM

Structure (SMILES): C[S+]([O-])c1cccc(-n2c(=O)n(Cc3ccccc3)c(=O)c3[nH]cnc32)c1 (centres undefined)
- IC50 [2]: 1.6 µM
- IC50 [3]: 56 µM
- Ratio [4]: 35

Structure (SMILES): Nc1cccc(-n2c(=O)n(Cc3ccccc3)c(=O)c3[nH]cnc32)c1
- IC50 [2]: 0.32 µM
- IC50 [3]: 11 µM
- Ratio [4]: 34

Structure (SMILES): O=C(O)c1cccc(-n2c(=O)n(Cc3ccccc3)c(=O)c3[nH]cnc32)c1
- IC50 [3]: 110 µM

Structure (SMILES): Cc1ccccc1-n1c(=O)n(Cc2cccs2)c(=O)c2[nH]cnc21
- IC50 [2]: 1.02 µM
- inhibition in vivo at 10 mg/kg [5]: 56%
- Activity [6]: inactive
- IC50 [3]: 4.2 µM
- Ratio [4]: 4.1
- inhibition in vivo at 30 mg/kg [7]: 70%

Structure (SMILES): Cc1ccccc1-n1c(=O)n(Cc2ccccc2)c(=O)c2[nH]cnc21
- IC50 [2]: 0.67 µM
- IC50 [3]: 7.97 µM
- Ratio [4]: 11.9

Structure (SMILES): CC(C)(C)c1ccccc1-n1c(=O)n(Cc2ccccc2)c(=O)c2[nH]cnc21
- IC50 [3]: > 20 µM

Structure (SMILES): O=c1c2[nH]cnc2n(-c2ccccc2F)c(=O)n1Cc1ccccc1
- IC50 [2]: 0.22 µM
- IC50 [3]: 2.4 µM
- Ratio [4]: 10.9

Structure (SMILES): COC(=O)c1cccc(-n2c(=O)n(Cc3ccccc3)c(=O)c3[nH]cnc32)c1
- IC50 [2]: 0.009 µM
- IC50 [3]: 4.08 µM
- Ratio [4]: 453

Structure (SMILES): C[S+]([O-])c1ccccc1-n1c(=O)n(Cc2ccccc2)c(=O)c2[nH]cnc21 (centres undefined)
- IC50 [3]: 100 µM

Structure (SMILES): O=c1c2[nH]cnc2n(-c2ccccc2C(F)(F)F)c(=O)n1Cc1ccccc1
- IC50 [3]: 20 µM

Structure (SMILES): O=c1c2[nH]cnc2n(-c2cccc(Cl)c2)c(=O)n1Cc1ccccc1
- IC50 [3]: 6.55 µM
- Ratio [4]: 156
- IC50 [8]: 0.042 µM

Structure (SMILES): O=c1c2[nH]cnc2n(-c2ccccc2)c(=O)n1Cc1ccccc1
- IC50 [2]: 0.08 µM
- IC50 [3]: 4.8 µM
- Ratio [4]: 60
